{"source": "patent US9834535B2", "about": "“Sulfamate derivative compounds for use in treating or alleviating pain” (Bio-Pharm Solutions Co., Ltd., priority 2013, dated 2017)", "key": {"CFA-induced pain model": {"test_system": "CFA-induced pain model", "test": "Antiallodynic activity on Complete Freund's Adjuvant (CFA)-induced inflammatory pain model (von Frey)", "assay_type": "in vivo, Sprague-Dawley rats", "conditions": "Rattus norvegicus, ip, 0.5 h, 0.5 h, rat, intraperitoneal, read-out: CFA model: effect (%) at the concentration administered", "procedure": "Male, Sprague-Dawley rats (200-220 g, Nara Bio, Korea) were habituated for 1 week before surgery and allowed free access to food and water throughout the experimentation. Room temperature and humidity were maintained at 24±2° C. and 50±10%, respectively.\nCFA-induced inflammatory pain was induced by the procedure of Nagakura et al. (2003) and Gregory P. et al. (2010) with minor modifications. CFA (sigma, USA) was injected in the left plantar with a 100 ul volume under gaseous anesthesia with isoflurane a 4:4 flow ratio of NO2 Sham controls were injected with 100 ul of saline and vehicle controls were identical to CFA infusion model, except for administration of vehicles.\n(§1) Tactile sensitivity (Mechanical allodynia) was evaluated using von Frey monofilaments before and after treatment, and animals were used withdrawal threshold value was less than 4 g. One week after surgery, CFA-infused animals (n=4˜6), sham-operated animals (n=12), and vehicle-operated animals (n=17) were tested for tactile sensitivity with von Frey monofilaments 3 trials in each animal. All Animals were placed in a stainless steel mashed chamber and habituated for 30 min in the test box. The tactile sensitivity for ipsilateral hind paw was measured using the up-and-down method (Dixon, 1980) with seven von Frey monofilaments (0.4, 1, 2, 4, 6, 8, and 15 g) to 3 trials. Tactile sensitivity test was followed by Dixon's method (Dixon, 1980). The 50% paw withdrawal threshold for each paw was calculated using the following formula: [Xth] log=[vFr] log+ky where [vFr] is the force of the last von Frey used, k=0.2249 which is the average interval (in log units) between the von Frey monofilaments, and y is a value that depends upon the pattern of withdrawal responses (Dixon, 1980).\n[…] The test was performed peak time of efficacy (0.5 hr) after compound administration.\nThe relative values compared to the sham (% control) were calculated and shown in Table 4, which show an antiallodynic effect of the compound of Examples on CFA-induced pain model in rats."}, "SNL model": {"test_system": "SNL model", "test": "Antiallodynic activity on Chung model (SNL, spinal nerve ligation; von Frey)", "assay_type": "in vivo, Sprague-Dawley rats", "conditions": "0.5 h, rat, oral, read-out: SNL model: effect (%) at the concentration administered", "procedure": "Male. Sprague-Dawley rats (200-220 g, Orient Bio, Korea) were habituated for 1 week before the experiment and allowed free access to food and water throughout the experimentation. Room temperature and humidity were maintained at 24±2° C. and 50±10%, respectively. Neuropathic surgery (SNL, Spinal nerve ligation) model was clone as described in Kim and Chung (1992). Briefly, animal under gaseous anesthesia with isoflurane a 4:4 flow ratio of NO2. The left lumber spinal nerve L5 and L6 were isolated and tightly ligated with 4-0 silk thread. The wound was treated with a gentamicin antibiotics solution (4 mg/kg, 4 ul/g, bw), and the wound muscle was closed with cat cut chrom 4/0 thread and skin was closed dafilon 4/0 tread. Sham controls were prepared in the same manner as the spinal nerves were exposed, but no ligated L5 and L6 nerves. But, vehicle controls were identical to SNL model, except for administration of vehicles.\nas §1, with “treatment” for “treatment,”, “SNL-operated” for “CFA-infused”, “(n=4˜10)” for “(n=12),”, “(n=4˜13)” for “(n=17)”\nAll animals were fasted 18 h before the administration of the compounds. The antiallodynic effect of the compounds were evaluated at the various dose (n=5˜6), orally administrated in a volume of 5 ul/g, bw in a vehicle of 30% (v/v) PEG 400 or 20% (v/v) Tween 80 or Saline. […]\nThe relative values compared to the sham group (% control) were calculated and shown in Table 5, which show an antiallodynic effect of the test compounds on SNL model in rats."}}}
{"smiles": "Nc1ccccc1[C@@H]1OC2(CCCC2)O[C@H]1COS(N)(=O)=O", "note": "[Example 72, ((2S,3S)-3-(2-aminophenyl)-1,4-dioxaspiro[4,4]nonan-2-yl)methyl sulfamate]", "values": [{"measurement": "response vs control in vivo at 40 mg/kg", "setting": "CFA-induced pain model", "value": 22.6, "unit": "%"}, {"measurement": "response vs control in vivo at 50 mg/kg", "setting": "SNL model", "value": 35.1, "unit": "%"}]}
{"smiles": "CC1(C)O[C@@H](COS(N)(=O)=O)[C@H](c2ccccc2)O1", "note": "[Example 106, ((4S,5S)-5-phenyl-2,2-dimethyl-1,3-dioxolan-4-yl)methyl sulfamate]", "values": [{"measurement": "response vs control in vivo at 18 mg/kg", "setting": "CFA-induced pain model", "value": 23.2, "unit": "%"}, {"measurement": "response vs control in vivo at 50 mg/kg", "setting": "SNL model", "value": 25.4, "unit": "%"}]}
{"smiles": "CC1(C)O[C@H](COS(N)(=O)=O)[C@@H](Cc2ccccc2Cl)O1", "note": "[Example 146, ((4R,5R)-5-(2-chlorobenzyl)-2,2-dimethyl-1,3-dioxolan-4-yl)methyl sulfamate]", "values": [{"measurement": "response vs control in vivo at 40 mg/kg", "setting": "CFA-induced pain model", "value": 16.5, "unit": "%"}, {"measurement": "response vs control in vivo at 90 mg/kg", "setting": "SNL model", "value": 45.8, "unit": "%"}]}
{"smiles": "Nc1ccccc1[C@@H]1OC(c2ccccc2)O[C@H]1COS(N)(=O)=O", "note": "(stereo partly drawn) [Example 76, ((4S,5S)-5-(2-aminophenyl)-2-phenyl-1,3-dioxolan-4-yl)methyl sulfamate]", "values": [{"measurement": "response vs control in vivo at 40 mg/kg", "setting": "CFA-induced pain model", "value": 25.7, "unit": "%"}, {"measurement": "response vs control in vivo at 90 mg/kg", "setting": "SNL model", "value": 22.9, "unit": "%"}]}
{"smiles": "Cc1ccccc1[C@@H]1OC(C)(C)O[C@H]1COS(N)(=O)=O", "note": "[Example 92, ((4S,5S)-5-(2-methylphenyl)-2,2-dimethyl-1,3-dioxolan-4-yl)methyl sulfamate]", "values": [{"measurement": "response vs control in vivo at 18 mg/kg", "setting": "CFA-induced pain model", "value": 22.3, "unit": "%"}, {"measurement": "response vs control in vivo at 50 mg/kg", "setting": "SNL model", "value": 37.3, "unit": "%"}]}
{"smiles": "CC1(C)O[C@H](CCOS(N)(=O)=O)[C@@H](Cc2ccccc2Cl)O1", "note": "[Example 138, 2-((4R,5R)-5-(2-chlorobenzyl)-2,2-dimethyl-1,3-dioxolan-4-yl)ethyl sulfamate]", "values": [{"measurement": "response vs control in vivo at 40 mg/kg", "setting": "CFA-induced pain model", "value": 32.7, "unit": "%"}, {"measurement": "response vs control in vivo at 90 mg/kg", "setting": "SNL model", "value": 71.4, "unit": "%"}]}
{"smiles": "CCC1(CC)O[C@H](COS(N)(=O)=O)[C@@H](Cc2ccccc2)O1", "note": "[Example 124, ((4R,5R)-5-benzyl-2,2-diethyl-1,3-dioxolan-4-yl)methyl sulfamate]", "values": [{"measurement": "response vs control in vivo at 40 mg/kg", "setting": "CFA-induced pain model", "value": 34.2, "unit": "%"}]}
{"smiles": "CCC1(CC)O[C@H](CCOS(N)(=O)=O)[C@@H](Cc2ccccc2Cl)O1", "note": "[Example 140, 2-((4R,5R)-5-(2-chlorobenzyl)-2,2-diethyl-1,3-dioxolan-4-yl)ethyl sulfamate]", "values": [{"measurement": "response vs control in vivo at 40 mg/kg", "setting": "CFA-induced pain model", "value": 37.4, "unit": "%"}]}
{"smiles": "CC1(C)O[C@H](c2ccccc2I)[C@@H](COS(N)(=O)=O)O1", "note": "[Example 27, ((4R,5R)-5-(2-iodophenyl)-2,2-dimethyl-1,3-dioxolan-4-yl)methyl sulfamate]", "values": [{"measurement": "response vs control in vivo at 18 mg/kg", "setting": "CFA-induced pain model", "value": 20.2, "unit": "%"}, {"measurement": "response vs control in vivo at 50 mg/kg", "setting": "SNL model", "value": 17.3, "unit": "%"}]}
{"smiles": "CC1(C)O[C@H](COS(N)(=O)=O)[C@@H](Cc2ccccc2)O1", "note": "[Example 122, ((4R,5R)-5-benzyl-2,2-dimethyl-1,3-dioxolan-4-yl)methyl sulfamate]", "values": [{"measurement": "response vs control in vivo at 18 mg/kg", "setting": "CFA-induced pain model", "value": 22.3, "unit": "%"}, {"measurement": "response vs control in vivo at 50 mg/kg", "setting": "SNL model", "value": 64.1, "unit": "%"}]}
{"smiles": "NS(=O)(=O)OCC[C@H]1OC2(CCCCC2)O[C@@H]1Cc1ccccc1", "note": "[Example 120, 2-((2R,3R)-3-benzyl-1,4-dioxaspiro[4,5]decan-2-yl)ethyl sulfamate]", "values": [{"measurement": "response vs control in vivo at 40 mg/kg", "setting": "CFA-induced pain model", "value": 23, "unit": "%"}]}
{"smiles": "NS(=O)(=O)OC[C@H]1OC2(CCCCC2)O[C@@H]1Cc1ccccc1", "note": "[Example 128, ((2R,3R)-3-benzyl-1,4-dioxaspiro[4,5]decan-2-yl)methyl sulfamate]", "values": [{"measurement": "response vs control in vivo at 18 mg/kg", "setting": "CFA-induced pain model", "value": 24.5, "unit": "%"}]}
{"smiles": "CCC1(CC)O[C@H](CCOS(N)(=O)=O)[C@@H](Cc2ccccc2)O1", "note": "[Example 116, 2-((4R,5R)-5-benzyl-2,2-diethyl-1,3-dioxolan-4-yl)ethyl sulfamate]", "values": [{"measurement": "response vs control in vivo at 40 mg/kg", "setting": "CFA-induced pain model", "value": 14.5, "unit": "%"}]}
{"smiles": "Nc1ccccc1[C@@H]1OC2(CCCCC2)O[C@H]1COS(N)(=O)=O", "note": "[Example 74, ((2S,3S)-3-(2-aminophenyl)-1,4-dioxaspiro[4,5]decan-2-yl)methyl sulfamate]", "values": [{"measurement": "response vs control in vivo at 60 mg/kg", "setting": "CFA-induced pain model", "value": 37.1, "unit": "%"}]}
{"smiles": "CC1(C)O[C@@H](COS(N)(=O)=O)[C@H](c2ccsc2)O1", "note": "[Example 171, ((4S,5S)-2,2-dimethyl-5-(thiophen-3-yl)-1,3-dioxolan-4-yl)methyl sulfamate]", "values": [{"measurement": "response vs control in vivo at 60 mg/kg", "setting": "CFA-induced pain model", "value": 29.8, "unit": "%"}]}
{"smiles": "NS(=O)(=O)OC[C@@H]1OC2(CCCCC2)O[C@H]1c1ccccc1Cl", "note": "[Example 12, ((2S,3S)-3-(2-chlorophenyl)-1,4-dioxaspiro[4,5]decan-2-yl)methyl sulfamate]", "values": [{"measurement": "response vs control in vivo at 18 mg/kg", "setting": "CFA-induced pain model", "value": 48.8, "unit": "%"}]}
{"smiles": "CCC1(CC)O[C@@H](CCOS(N)(=O)=O)[C@H](c2ccccc2Cl)O1", "note": "[Example 156, 2-((4S,5S)-5-(2-chlorophenyl)-2,2-diethyl-1,3-dioxolan-4-yl)ethyl sulfamate]", "values": [{"measurement": "response vs control in vivo at 40 mg/kg", "setting": "CFA-induced pain model", "value": 30.8, "unit": "%"}]}
{"smiles": "CC1(C)OC(COS(N)(=O)=O)C(c2ccncc2Cl)O1", "note": "(centres unmarked) [Example 173, (5-(3-chloropyridin-4-yl)-2,2-dimethyl-1,3-dioxolan-4-yl)methyl sulfamate]", "values": [{"measurement": "response vs control in vivo at 60 mg/kg", "setting": "CFA-induced pain model", "value": 33.9, "unit": "%"}]}
{"smiles": "NS(=O)(=O)OC[C@@H]1OC2(CCCC2)O[C@H]1c1ccccc1", "note": "[Example 110, ((2S,3S)-3-phenyl-1,4-dioxaspiro[4,4]nonan-2-yl)methyl sulfamate]", "values": [{"measurement": "response vs control in vivo at 40 mg/kg", "setting": "CFA-induced pain model", "value": 42.7, "unit": "%"}]}
{"smiles": "CNc1ccccc1[C@@H]1OC(C)(C)O[C@H]1COS(=O)(=O)NC", "note": "[Example 104, ((4S, 5S)-5-(2-methylaminophenyl)-2,2-dimethyl-1,3-dioxolan-4-yl)methyl methylsulfamate]", "values": [{"measurement": "response vs control in vivo at 40 mg/kg", "setting": "CFA-induced pain model", "value": 24.1, "unit": "%"}]}
{"smiles": "NS(=O)(=O)OC[C@H]1OC2(CCCCC2)O[C@@H]1Cc1ccccc1Cl", "note": "[Example 152, ((2R,3R)-3-(2-chlorobenzyl)-1,4-dioxaspiro[4,5]decan-2-yl)methyl sulfamate]", "values": [{"measurement": "response vs control in vivo at 40 mg/kg", "setting": "CFA-induced pain model", "value": 34.9, "unit": "%"}]}
{"smiles": "NS(=O)(=O)OCC[C@H]1OC2(CCCC2)O[C@@H]1Cc1ccccc1", "note": "[Example 118, 2-((2R,3R)-3-benzyl-1,4-dioxaspiro[4,4]nonan-2-yl)ethyl sulfamate]", "values": [{"measurement": "response vs control in vivo at 40 mg/kg", "setting": "CFA-induced pain model", "value": 25, "unit": "%"}, {"measurement": "response vs control in vivo at 90 mg/kg", "setting": "SNL model", "value": 38.3, "unit": "%"}]}
{"smiles": "CC1(C)O[C@@H](COS(N)(=O)=O)[C@H](c2sc(Cl)nc2Cl)O1", "note": "[Example 164, ((4S,5R)-5-(2,4 dichlorothiazol-5-yl)-2,2-dimethyl-1,3-dioxolan-4-yl)methyl sulfamate]", "values": [{"measurement": "response vs control in vivo at 60 mg/kg", "setting": "CFA-induced pain model", "value": 66.8, "unit": "%"}]}
